From patent publication US11446300B2 (Alexion Pharmaceuticals, Inc., priority 2015, dated 2022)
Read-outs that look alike come from different tables or passages of the source.

Tests used:
PKC = test: Phase I study, selectivity of signaling inhibition; set-up: species or system human; conditions: in vivo
LY7 = test: DLBCL cell line viability, CellTiter Glo, ten-point curve; type: cell-based; conditions: read-out: IC50 of Kinase Inhibitor in Cell Titer Glo Assay
DLBCL cell lines = test: Panel of 15 DLBCL cell lines: viability, caspase 3 cleavage and Edu incorporation; type: cell-based
Description: Cell lines, purchased from ATCC, were screened using the CellTiter Glo (Promega) assay in 384 well plates using a ten-point concentration response curve to generate IC50's. Each IC50 value is an average of at least four replicate experiments. Subsequent analysis using a FACS based caspase 3 cleavage detection kit (BD Biosciences) and Edu incorporation were performed.

BCR signaling = test: Phase I study, whole blood assay of signaling via the B-cell antigen receptor; type: in vivo, human; conditions: for % Inh. BCR (Cmin − Cmax): extrapolated from PK/PD fit of all data
Description: (§1) Pharmacokinetics (“PK”), pharmacodynamics (“PD”), and safety were monitored. Response was assessed by standard criteria. The level of inhibition of SYK and JAK was determined using a variety of whole blood assays measuring signaling via receptors for the B-cell antigen, IL2, IL4, IL6, and GM-CSF. Serum markers of tumor burden, including CCL3, CCL4, and other markers of inflammation (02M and CRP), were also being measured.

[1] = tested on: primary CLL cells from patients who responded to ibrutinib; test: BrdU cell proliferation assay, combined stimulation; type: cell-based, human; conditions: 250 nM, day 8
[2] = tested on: serum markers of inflammation (β2M, CRP, CCL3, CCL4); test: Phase I study, serum markers of inflammation; type: in vivo, human
Description: as §1

[3] = Phase I study, pharmacokinetics following oral dosing; type: in vivo, human; conditions: for Cmax / AUC / half-life / steady-state Cmin to Cmax range: human, plasma
Description: A first-in-human study of cerdulatinib in patients with relapsed/refractory CLL/SLL or B-cell non-Hodgkin's lymphoma (NHL) was carried out. […] Patients received a single dose on day 1 for 72 hour PK evaluation. Continuous dosing was initiated on day 4. […] Median age was 67 years (range 23-85) and median prior therapies (tx) was 3 (range 1-8).
as §1

DHL10 = test: DLBCL cell line viability, CellTiter Glo, ten-point curve; type: cell-based; conditions: read-out: IC50 of Kinase Inhibitor in Cell Titer Glo Assay
[4] = 15 mg/twice daily oral, Table 2, n=28
[5] = 15 mg/twice daily, Table 3, n=43
[6] = 20 mg/twice daily oral, Table 2, n=28
[7] = 20 mg/twice daily, Table 3, n=43
[8] = 45 mg/day oral, PK outlier removed, Table 2, n=28
[9] = 45 mg/twice daily, Table 3, n=43
[10] = 100 mg/day (one patient), Table 3

CCS(=O)(=O)N1CCN(c2ccc(Nc3ncc(C(N)=O)c(NC4CC4)n3)cc2)CC1 [Cerdulatinib, 4-(cyclopropylamino)-2-(4-(4-(ethylsulfonyl)piperazin-1-yl)phenylamino)pyrimidine-5-carboxamide]
inhibition of PKC (PKC): no inhibition
IC50 (LY7): 1.9 µM
anti-tumor activity in DLBCL cell lines bearing mutations to CARD11, MYD88, and A20 (DLBCL cell lines): maintained anti-tumor activity
cell lines that underwent apoptosis (DLBCL cell lines; panel of 15 cell lines, ABC and GCB subtypes): 9
cell lines completely resistant (DLBCL cell lines; screen of 15 DLBCL cell lines): 3
% Inh. BCR (Cmin − Cmax) (BCR signaling; 15 mg/twice daily): 42 − 74%
% Inh. BCR (Cmin − Cmax) (BCR signaling; 20 mg/twice daily): 55 − 95%
% Inh. BCR (Cmin − Cmax) (BCR signaling; 45 mg/twice daily): 100 − 100%
inhibition at 65 mg (BCR signaling; Homo sapiens, B-cell, Patient 1, 65 mg PO QD): 100%
% Inh. BCR (Cmin − Cmax) (BCR signaling; printed on the 40 mg/day line (45-65 mg/day lines empty)): 92 − 100%
BrdU incorporation [1]: responded equally well
inhibition of serum markers of inflammation ([2]; QD dosing of 40-100 mg): significant inhibition
serum proteins that are markers of inflammation (β2M, CRP, TNFR, CCL3/4) ([2]; in vivo): significantly reduced
SS Cave ([3]; 15 mg/day oral, Table 2, n=28): 190 nM
SS Cave ([3]; 15 mg/day, Table 3, n=43): 190 nM
SS Cmin ([3]; 15 mg/day, Table 3, n=43): 120 nM
SS Cave [3, 4]: 390 nM
SS Cave [3, 5]: 390 nM
SS Cmin [3, 5]: 290 nM
SS Cave [3, 6]: 520 nM
SS Cave [3, 7]: 520 nM
SS Cmin [3, 7]: 380 nM
SS Cave ([3]; 30 mg/day oral, Table 2, n=28): 310 nM
SS Cmin ([3]; 30 mg/day oral, Table 2, n=28): 210 nM
SS Cave ([3]; 30 mg/day, Table 3, n=43): 310 nM
SS Cmin ([3]; 30 mg/day, Table 3, n=43): 210 nM
SS Cave ([3]; 40 mg/day oral, Table 2, n=28): 1140 nM
SS Cmin ([3]; 40 mg/day oral, Table 2, n=28): 870 nM
SS Cave ([3]; 40 mg/day, Table 3, n=43): 1140 nM
SS Cmin ([3]; 40 mg/day, Table 3, n=43): 870 nM
SS Cave [3, 8]: 1110 nM
SS Cmin [3, 8]: 820 nM
SS Cave ([3]; 45 mg/day, Table 3, n=43): 1110 nM
SS Cmin ([3]; 45 mg/day, Table 3, n=43): 820 nM
SS Cave [3, 9]: 1500 nM
SS Cmin [3, 9]: 1480 nM
SS Cave ([3]; 50 mg/day oral, Table 2, n=28): 1310 nM
SS Cave ([3]; 50 mg/day, Table 3, n=43): 990 nM
SS Cmin ([3]; 50 mg/day, Table 3, n=43): 790 nM
SS Cave ([3]; 65 mg/day, Table 3, n=43): 1010 nM
SS Cmin ([3]; 65 mg/day, Table 3, n=43): 760 nM
SS Cave [3, 10]: 680 nM
SS Cmin [3, 10]: 370 nM
Cmax ([3]; oral, 15 mg/day, Table 3, n=43, read-out: SS Cmax): 380 nM
Cmax ([3]; oral, 15 mg/twice daily, Table 3, n=43, read-out: SS Cmax): 530 nM
Cmax ([3]; oral, 20 mg/twice daily, Table 3, n=43, read-out: SS Cmax): 890 nM
Cmax ([3]; oral, 30 mg/day, Table 3, n=43, read-out: SS Cmax): 630 nM
Cmax ([3]; oral, 40 mg/day, Table 3, n=43, read-out: SS Cmax): 1480 nM
Cmax ([3]; oral, 45 mg, 45 mg BID, n=20, read-out: Cmax): 2160 ± 500 nM
Cmax ([3]; oral, 45 mg/day, Table 3, n=43, read-out: SS Cmax): 1690 nM
Cmax ([3]; oral, 45 mg/day, outlier removed from the group, read-out: steady state Cmax of PK outlier): 150 nM
Cmax ([3]; oral, 45 mg/twice daily, Table 3, n=43, read-out: SS Cmax): 1800 nM
Cmax ([3]; oral, 50 mg/day, Table 3, n=43, read-out: SS Cmax): 1570 nM
Cmax ([3]; oral, 65 mg/day, Table 3, n=43, read-out: SS Cmax): 1670 nM
Cmax ([3]; oral, 65 mg, read-out: steady state Cmax): ~2000 nM
Cmax ([3]; oral, 100 mg/day, 100 mg/day (one patient), Table 3, read-out: SS Cmax): 1110 nM
Cmax ([3]; oral, 40-100 mg QD doses, read-out: average steady state (SS) Cmax): 1630 ± 560 nM
AUC ([3]; oral, 15 mg/day, Table 3, n=43): 4.5 ± 0.8 µM·h
half-life ([3]; oral, 15 mg/day, Table 3, n=43, read-out: T1/2 (converted)): 11.5 h
AUC ([3]; oral, 15 mg/twice daily, Table 3, n=43): 4.7 ± 1.3 µM·h
half-life ([3]; oral, 15 mg/twice daily, Table 3, n=43, read-out: T1/2 (converted)): 11.2 h
AUC ([3]; oral, 20 mg/twice daily, Table 3, n=43): 6.2 ± 1 µM·h
half-life ([3]; oral, 20 mg/twice daily, Table 3, n=43, read-out: T1/2 (converted)): 8.4 h
AUC ([3]; oral, 30 mg/day, Table 3, n=43): 7.5 ± 3 µM·h
half-life ([3]; oral, 30 mg/day, Table 3, n=43, read-out: T1/2 (converted)): 12.3 h
AUC ([3]; oral, 40 mg/day, Table 3, n=43): 27.3 ± 0.8 µM·h
half-life ([3]; oral, 40 mg/day, Table 3, n=43, read-out: T1/2 (converted)): 32.8 h
AUC ([3]; oral, 45 mg BID, n=20): 33.3 ± 15.9 µM·h
half-life ([3]; oral, 45 mg BID, n=20, read-out: T1/2 (converted)): 27.5 ± 22.5 h
AUC ([3]; oral, 45 mg/day, Table 3, n=43): 26.6 ± 13.9 µM·h
half-life ([3]; oral, 45 mg/day, Table 3, n=43, read-out: T1/2 (converted)): 22.3 h
AUC ([3]; oral, 50 mg/day, Table 3, n=43): 23.8 ± 14.9 µM·h
half-life ([3]; oral, 50 mg/day, Table 3, n=43, read-out: T1/2 (converted)): 39 h
AUC ([3]; oral, 65 mg/day, Table 3, n=43): 24.2 ± 0.7 µM·h
half-life ([3]; oral, 65 mg/day, Table 3, n=43, read-out: T1/2 (converted)): 25.1 h
AUC ([3]; oral, 100 mg/day (one patient), Table 3): 16.3 µM·h
half-life ([3]; oral, 100 mg/day (one patient), Table 3, read-out: T1/2 (converted)): 14.4 h
half-life ([3]; oral, once daily dosing, read-out: half-life): 12 to 16 h
Cmax ([3]; po, 15 mg twice daily, 15 mg/twice daily oral, Table 2, n=28, read-out: SS Cmax): 530 nM
Cmax ([3]; po, 15 mg/day, 15 mg/day oral, Table 2, n=28, read-out: SS Cmax): 380 nM
Cmax ([3]; po, 20 mg twice daily, 20 mg/twice daily oral, Table 2, n=28, read-out: SS Cmax): 890 nM
Cmax ([3]; po, 30 mg/day, 30 mg/day oral, Table 2, n=28, read-out: SS Cmax): 630 nM
Cmax ([3]; po, 40 mg/day, 40 mg/day oral, Table 2, n=28, read-out: SS Cmax): 1480 nM
Cmax ([3]; po, 45 mg/day, 45 mg/day oral, PK outlier removed, Table 2, n=28, read-out: SS Cmax): 1690 nM
Cmax ([3]; po, 50 mg/day, 50 mg/day oral, Table 2, n=28, read-out: SS Cmax): 2070 nM
steady-state Cmin to Cmax range ([3]; po, 65 mg, Patient 1, 65 mg PO QD): 730 to 1740 nM
steady-state Cmin to Cmax range ([3]; po, Patient 2, 45 mg PO QD reduced to 30 mg): 250 to 630 nM
AUC ([3]; 15 mg/day oral, Table 2, n=28): 4.5 µM·h
half-life ([3]; 15 mg/day oral, Table 2, n=28, read-out: T1/2 (converted)): 11.5 h
AUC [3, 4]: 4.7 µM·h
half-life ([3]; 15 mg/twice daily oral, Table 2, n=28, read-out: T1/2 (converted)): 11.2 h
AUC [3, 6]: 6.2 µM·h
half-life ([3]; 20 mg/twice daily oral, Table 2, n=28, read-out: T1/2 (converted)): 8.4 h
AUC ([3]; 30 mg/day oral, Table 2, n=28): 7.5 µM·h
half-life ([3]; 30 mg/day oral, Table 2, n=28, read-out: T1/2 (converted)): 12.3 h
AUC ([3]; 40 mg/day oral, Table 2, n=28): 27.3 µM·h
half-life ([3]; 40 mg/day oral, Table 2, n=28, read-out: T1/2 (converted)): 32.8 h
AUC [3, 8]: 26.6 µM·h
half-life ([3]; 45 mg/day oral, PK outlier removed, Table 2, n=28, read-out: T1/2 (converted)): 22.3 h
AUC ([3]; 50 mg/day oral, Table 2, n=28): 31.4 µM·h
concentrations achievable in patients ([3]; in vivo): ~2200 nM
IC50 (DHL10): 2.3 µM
